Assay results as given in patent US12685312B2, “Sulfonamide apyrase inhibitors” (Texas Crop Science, Inc., priority 2022, dated 2026).

Tested on: apyrase
Assay: Screen for apyrase inhibitors (Method 1, in vitro phosphate-release absorbance assay)
Type: biochemical
Details: inhibitor conc at 1 mM stock, 1 hr room temperature, absorbance 630 nm; rounded average of two assay results
Outline: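 Phosphate-release colorimetric assay (Windsor method) in 60 mM Hepes, 3 mM MgCl2, 3 mM CaCl2, 3 mM ATP, pH 6.5, with compound or DMSO control added. Released phosphate developed with ammonium molybdate and ascorbic acid/TCA, then stopped with citrate/acetic acid.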

| Compound | % Inhibition of Apyrase [%] |
| --- | --- |
| O=C(NC1CCCc2ccccc21)c1cccc(S(=O)(=O)Nc2ccc(Br)cc2)c1 (centres unmarked) [I-244, 3-(N-(4-bromophenyl)sulfamoyl)-N-(1,2,3,4-tetrahydronaphthalen-1-yl)benzamide] | 68 |
| Cc1ccc(NC(=O)c2cccc(S(=O)(=O)Nc3ccc4c(c3)OCO4)c2)cc1 [I-245, 3-(N-(benzo[d][1,3]dioxol-5-yl)sulfamoyl)-N-(p-tolyl)benzamide] | 67 |
| COc1ccc(NC(=O)c2cccc(S(=O)(=O)Nc3ccc(Cl)cc3)c2)cc1 [I-246, 3-(N-(4-chlorophenyl)sulfamoyl)-N-(4-methoxyphenyl)benzamide] | 66 |
| O=C(c1cccc(S(=O)(=O)Nc2ccc(Br)cc2)c1)N1CCN(c2cccc(Cl)c2)CC1 [I-247, N-(4-bromophenyl)-3-(4-(3-chlorophenyl)piperazine-1-carbonyl)benzenesulfonamide] | 65 |
| CSc1cccc(NC(=O)c2cccc(S(=O)(=O)Nc3ccc4c(c3)OCO4)c2)c1 [I-248, 3-(N-(benzo[d][1,3]dioxol-5-yl)sulfamoyl)-N-(3-(methylthio)phenyl)benzamide] | 64 |
| O=C(Nc1ccccc1F)c1cccc(S(=O)(=O)Nc2ccc3c(c2)OCO3)c1 [I-249, 3-(N-(benzo[d][1,3]dioxol-5-yl)sulfamoyl)-N-(2-fluorophenyl)benzamide] | 63 |
| O=C(Nc1ccc(Br)cc1)c1cccc(S(=O)(=O)Nc2cccc(C(F)(F)F)c2)c1 [I-250, N-(4-bromophenyl)-3-(N-(3-(trifluoromethyl)phenyl)sulfamoyl)benzamide] | 63 |
| COc1ccc([N+](=O)[O-])cc1NC(=O)c1cccc(S(=O)(=O)Nc2cc(C(F)(F)F)ccc2Cl)c1 [I-251, 3-(N-(2-chloro-5-(trifluoromethyl)phenyl)sulfamoyl)-N-(2-methoxy-5-nitrophenyl)benzamide] | 62 |
| Cc1ccc(F)c(NC(=O)c2cccc(S(=O)(=O)Nc3ccc4c(c3)OCO4)c2)c1 [I-252, 3-(N-(benzo[d][1,3]dioxol-5-yl)sulfamoyl)-N-(2-fluoro-5-methylphenyl)benzamide] | 62 |
| COc1cccc(NC(=O)c2cccc(S(=O)(=O)Nc3ccc4c(c3)OCO4)c2)c1 [I-253, 3-(N-(benzo[d][1,3]dioxol-5-yl)sulfamoyl)-N-(3-methoxyphenyl)benzamide] | 61 |
| COc1ccc([N+](=O)[O-])cc1NC(=O)c1cccc(S(=O)(=O)Nc2ccc(Cl)cc2)c1 [I-254, 3-(N-(4-chlorophenyl)sulfamoyl)-N-(2-methoxy-5-nitrophenyl)benzamide] | 61 |
| O=C(Nc1ccc(N2CCOCC2)cc1)c1cccc(S(=O)(=O)Nc2ccc(Br)cc2)c1 [I-255, 3-(N-(4-bromophenyl)sulfamoyl)-N-(4-morpholinophenyl)benzamide] | 61 |
| Cc1nc2cc(NC(=O)c3cccc(S(=O)(=O)Nc4ccc(Br)cc4)c3)ccc2o1 [I-256, 3-(N-(4-bromophenyl)sulfamoyl)-N-(2-methylbenzo[d]oxazol-5-yl)benzamide] | 61 |
| COc1cc(NC(=O)c2cccc(S(=O)(=O)Nc3ccc4c(c3)OCO4)c2)cc(OC)c1 [I-257, 3-(N-(benzo[d][1,3]dioxol-5-yl)sulfamoyl)-N-(3,5-dimethoxyphenyl)benzamide] | 61 |
| O=C(Nc1ccc2c(c1)OCCCO2)c1cccc(S(=O)(=O)Nc2ccc3c(c2)OCO3)c1 [I-258, 3-(N-(benzo[d][1,3]dioxol-5-yl)sulfamoyl)-N-(3,4-dihydro-2H-benzo[b][1,4]dioxepin-7-yl)benzamide] | 61 |
| O=C(Nc1ccc(OCC(F)(F)F)cc1)c1cccc(S(=O)(=O)Nc2ccc3c(c2)OCO3)c1 [I-259, 3-(N-(benzo[d][1,3]dioxol-5-yl)sulfamoyl)-N-(4-(2,2,2-trifluoroethoxy)phenyl)benzamide] | 60 |
| O=C(NCC1(c2ccc(Br)cc2)CCOCC1)c1cccc(S(=O)(=O)Nc2ccc(Br)cc2)c1 [I-260, 3-(N-(4-bromophenyl)sulfamoyl)-N-((4-(4-bromophenyl)tetrahydro-2H-pyran-4-yl)methyl)benzamide] | 60 |
| Cc1nc2ccc(NC(=O)c3cccc(S(=O)(=O)Nc4ccc5c(c4)OCO5)c3)cc2s1 [I-261, 3-(N-(benzo[d][1,3]dioxol-5-yl)sulfamoyl)-N-(2-methylbenzo[d]thiazol-6-yl)benzamide] | 60 |
| O=C(c1cccc(S(=O)(=O)Nc2ccc(Br)cc2)c1)N1CCc2sccc2C1 [I-262, N-(4-bromophenyl)-3-(4,5,6,7-tetrahydrothieno[3,2-c]pyridine-5-carbonyl)benzenesulfonamide] | 59 |
| COc1ccc([N+](=O)[O-])cc1NC(=O)c1cccc(S(=O)(=O)N2CCc3ccccc32)c1 [I-263, 3-(indolin-1-ylsulfonyl)-N-(2-methoxy-5-nitrophenyl)benzamide] | 59 |
| O=C(Nc1ccccc1)c1cccc(S(=O)(=O)Nc2ccc3c(c2)OCO3)c1 [I-264, 3-(N-(benzo[d][1,3]dioxol-5-yl)sulfamoyl)-N-phenylbenzamide] | 59 |

| Compound | % Inhibition of Apyrase [%] |
| --- | --- |
| O=C(Nc1cccc(F)c1)c1cccc(S(=O)(=O)Nc2ccc3c(c2)OCO3)c1 [I-265, 3-(N-(benzo[d][1,3]dioxol-5-yl)sulfamoyl)-N-(3-fluorophenyl)benzamide] | 58 |
| COc1ccccc1NS(=O)(=O)c1cccc(C(=O)Nc2cccc(C(F)(F)F)c2)c1 [I-266, 3-(N-(2-methoxyphenyl)sulfamoyl)-N-(3-(trifluoromethyl)phenyl)benzamide] | 58 |
| COc1ccc(N(C)S(=O)(=O)c2cccc(C(=O)Nc3ccc(Br)cc3)c2)cc1 [I-267, N-(4-bromophenyl)-3-(N-(4-methoxyphenyl)-N-methylsulfamoyl)benzamide] | 58 |
| COc1ccccc1NS(=O)(=O)c1cccc(C(=O)Nc2cccc([N+](=O)[O-])c2)c1 [I-268, 3-(N-(2-methoxyphenyl)sulfamoyl)-N-(3-nitrophenyl)benzamide] | 58 |
| COC(=O)C1(c2ccc(Br)cc2)CCN(C(=O)c2cccc(S(=O)(=O)Nc3ccc(Br)cc3)c2)C1 (centres unmarked) [I-269, methyl 3-(4-bromophenyl)-1-(3-(N-(4-bromophenyl)sulfamoyl)benzoyl)pyrrolidine-3-carboxylate] | 57 |
| Cc1cccc(NC(=O)c2cccc(S(=O)(=O)Nc3ccc4c(c3)OCO4)c2)c1 [I-270, 3-(N-(benzo[d][1,3]dioxol-5-yl)sulfamoyl)-N-(m-tolyl)benzamide] | 57 |
| COc1ccc([N+](=O)[O-])cc1NC(=O)c1cccc(S(=O)(=O)N2c3ccccc3CC2C)c1 (centres unmarked) [I-271, N-(2-methoxy-5-nitrophenyl)-3-((2-methylindolin-1-yl)sulfonyl)benzamide] | 56 |
| Cn1cc(O)nc1NC(=O)c1cccc(S(=O)(=O)Nc2ccc(Br)cc2)c1 [I-272, 3-(N-(4-bromophenyl)sulfamoyl)-N-(4-hydroxy-1-methyl-1H-imidazol-2-yl)benzamide] | 52 |
| Cc1ccc(NC(=O)c2cccc(S(=O)(=O)Nc3ccc(Br)cc3)c2)cc1S(=O)(=O)N1CCOCC1 [I-273, 3-(N-(4-bromophenyl)sulfamoyl)-N-(4-methyl-3-(morpholinosulfonyl)phenyl)benzamide] | 52 |
| N#CCc1ccc(NC(=O)c2cccc(S(=O)(=O)Nc3ccc4c(c3)OCO4)c2)cc1 [I-274, 3-(N-(benzo[d][1,3]dioxol-5-yl)sulfamoyl)-N-(4-(cyanomethyl)phenyl)benzamide] | 48 |
| COc1ccc([N+](=O)[O-])cc1NS(=O)(=O)c1cccc(C(=O)Nc2ccc(F)c([N+](=O)[O-])c2)c1 [I-275, N-(4-fluoro-3-nitrophenyl)-3-(N-(2-methoxy-5-nitrophenyl)sulfamoyl)benzamide] | 46 |
| COc1ccc(NC(=O)c2cccc(S(=O)(=O)Nc3ccc4c(c3)OCO4)c2)cc1 [I-276, 3-(N-(benzo[d][1,3]dioxol-5-yl)sulfamoyl)-N-(4-methoxyphenyl)benzamide] | 44 |
| COc1ccc(NC(=O)c2cccc(S(=O)(=O)Nc3ccc4c(c3)OCO4)c2)cc1OC [I-277, 3-(N-(benzo[d][1,3]dioxol-5-yl)sulfamoyl)-N-(3,4-dimethoxyphenyl)benzamide] | 44 |
| COc1ccc(NS(=O)(=O)c2cccc(C(=O)Nc3ccc(Br)cc3)c2)cc1 [I-278, N-(4-bromophenyl)-3-(N-(4-methoxyphenyl)sulfamoyl)benzamide] | 43 |
| COc1ccc(C(CNC(=O)c2cccc(S(=O)(=O)Nc3ccc(Br)cc3)c2)N(C)C)cc1 (centres unmarked) [I-279, 3-(N-(4-bromophenyl)sulfamoyl)-N-(2-(dimethylamino)-2-(4-methoxyphenyl)ethyl)benzamide] | 42 |
| COc1ccc(NC(=O)c2cccc(S(=O)(=O)Nc3ccc(Br)cc3)c2)cn1 [I-280, 3-(N-(4-bromophenyl)sulfamoyl)-N-(6-methoxypyridin-3-yl)benzamide] | 40 |
| O=C(NCC(=O)N1CCCCC1)c1cccc(S(=O)(=O)Nc2ccc(Br)cc2)c1 [I-281, 3-(N-(4-bromophenyl)sulfamoyl)-N-(2-oxo-2-(piperidin-1-yl)ethyl)benzamide] | 39 |
| NC(=O)C1CCCN(C(=O)c2cccc(S(=O)(=O)Nc3ccc(Br)cc3)c2)C1 (centres unmarked) [I-282, 1-(3-(N-(4-bromophenyl)sulfamoyl)benzoyl)piperidine-3-carboxamide] | 34 |
| O=C(Nc1ccc(N2CCOCC2)cc1)c1cccc(S(=O)(=O)Nc2ccc3c(c2)OCO3)c1 [I-283, 3-(N-(benzo[d][1,3]dioxol-5-yl)sulfamoyl)-N-(4-morpholinophenyl)benzamide] | 29 |
| O=C(NCCCN1CCOCC1)c1cccc(S(=O)(=O)Nc2ccc(Br)cc2)c1 [I-284, 3-(N-(4-bromophenyl)sulfamoyl)-N-(3-morpholinopropyl)benzamide] | 27 |
